Read-outs that look alike come from different tables or passages of the source.
Columns and labels:
Format in all cases: binding
[1] = target: BRD4(BD1) (Homo sapiens, UniProt O60885); assay: HTRF assay, BRD4(BD1)/histone peptide interaction; design: made in house; conditions: for IC50: HTRF; for Ratio 4-1 vs 4-2: selectivity Brd4(BD1) vs Brd4(BD2), HTRF IC50
Protocol: (§1) HTRF assays were performed in white 384 Well Small Volume™ HiBase Polystyrene Microplates (Greiner) with a total working volume of 20 μL. Compounds were dispensed, with 100 nL per well (0.5% final DMSO), from a concentration stock of 10 mM in 100% DMSO and with serial DMSO dilutions, using an Echo® 550 robot from the Access Labcyte platform (Labcyte) and based on the transfer of liquid by acoustic wave. Then, 19.5 μL of buffer is added, using a Multidrop Combi (Thermo Fisher Scientific). […] All HTRF reagents (donor and acceptor) were purchased from CisBio Bioassays and reconstituted according to the supplier protocols. The peptide was purchased from Genic Bio Synthetic. The BRD4(1) protein was produced and purified in the laboratory.
(§2) Percentage of inhibition was calculated using the following equation: % inhibition=[(compound signal)−(min signal)]/[(max signal)−(min signal)]*100, where ‘max signal’ is the signal ratio with the compound vehicle alone (DMSO) and ‘min signal’ the signal ratio without peptide.
(§3) Selectivity profiles of bromodomain inhibitors were performed as described in HTRF screen section. […] HTRF detection reagents (EPIgeneous™ Binding Domain kits) were purchased from Cisbio Bioassays and used according to supplier's protocol. GST tagged bromodomain proteins were purchased from BPS Bioscience and histone peptide from Genic Bio Synthetic.

[2] = target: T1, Brdt(BD1) (Homo sapiens, UniProt Q58F21); assay: HTRF BET selectivity profile, Brdt(BD1)
T1 construct: GST tagged bromodomain proteins were purchased from BPS Bioscience; purchased BPS Bioscience
Protocol: (§4) HTRF assays were performed in white 384 Well Small Volume™ HiBase Polystyrene Microplates (Greiner) with a total working volume of 20 μL. Compounds were dispensed, with 100 nL per well (0.5% final DMSO), from a concentration stock of 10 mM in 100% DMSO and with serial DMSO dilutions, using an Echo® 550 robot from the Access Labcyte platform (Labcyte) and based on the transfer of liquid by acoustic wave. Then, 19.5 μL of buffer is added, using a Multidrop Combi (Thermo Fisher Scientific). Finally, for each assay, 200 nL of master mix (protein+donor+acceptor) and 200 nL of peptide Is added in the assay wells according to the final concentration and buffer described in Table 3, using the Echo® 550 robot (Labcyte). The IC50 measurements were performed in triplicates (Table 2 and 3). All HTRF reagents (donor and acceptor) were purchased from CisBio Bioassays and reconstituted according to the supplier protocols. The peptide was purchased from Genic Bio Synthetic. The BRD4(1) protein was produced and purified in the laboratory. HTRF signals were measured, after a final incubation (3 h or 6 h or overnight at room temperature or 4° C., according to the bromodomain), using a PHERAstar FS (BMG Labtech) with an excitation filter at 337 nm and fluorescence wavelength measurement at 620 and 665 nm, an integration delay of 60 μs and an integration time of 500 μs. Results were analyzed with a two-wavelengths signal ratio: [intensity (665 nm)/intensity (620 nm)]*104.
as §2, §3

[3] = target: T2, Brd4(BD2) (Homo sapiens, UniProt O60885); assay: HTRF BET selectivity profile, Brd4(BD2)
T2 construct: GST tagged bromodomain proteins were purchased from BPS Bioscience; purchased BPS Bioscience
Protocol: as §4, §2, §3

[4] = target: T3, Brd3(BD2) (Homo sapiens, UniProt Q15059); assay: HTRF BET selectivity profile, Brd3(BD2)
T3 construct: GST tagged bromodomain proteins were purchased from BPS Bioscience; purchased BPS Bioscience
Protocol: as §4, §2, §3

[5] = target: T4, Brd2(BD2) (Homo sapiens, UniProt P25440); assay: HTRF BET selectivity profile, Brd2(BD2); conditions: read-out: Brd2(BD2) IC50
T4 construct: GST tagged bromodomain proteins were purchased from BPS Bioscience; purchased BPS Bioscience
Protocol: as §1, §2, §3

[6] = target: T5, Brd2(BD1) (Homo sapiens, UniProt P25440); assay: HTRF BET selectivity profile, Brd2(BD1); conditions: for IC50: read-out: Brd2(BD1) IC50; for Ratio 2-1 vs 2-2: selectivity Brd2(BD1) vs Brd2(BD2), HTRF IC50
T5 construct: GST tagged bromodomain proteins were purchased from BPS Bioscience; purchased BPS Bioscience
Protocol: as §1, §2, §3

[7] = target: Brd3(BD1) (Homo sapiens, UniProt Q15059); assay: HTRF BET selectivity profile, Brd3(BD1); design: GST tagged bromodomain proteins were purchased from BPS Bioscience; purchased BPS Bioscience; conditions: for Ratio 3-1 vs 3-2: selectivity Brd3(BD1) vs Brd3(BD2), HTRF IC50
Protocol: as §1, §2, §3

[8] = triplicates, NA = IC50 > maximal concentration of compound used
[9] = mean of three experiments, NA = IC50 > 50 μM, read-out: Brd4(8D1) IC50

T5 sequence (P25440 74-180 limits assumed): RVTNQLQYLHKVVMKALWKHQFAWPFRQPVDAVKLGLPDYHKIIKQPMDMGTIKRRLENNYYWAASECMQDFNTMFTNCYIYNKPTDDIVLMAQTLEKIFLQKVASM
Brd3(BD1), sequence (Q15059 34-140 limits assumed): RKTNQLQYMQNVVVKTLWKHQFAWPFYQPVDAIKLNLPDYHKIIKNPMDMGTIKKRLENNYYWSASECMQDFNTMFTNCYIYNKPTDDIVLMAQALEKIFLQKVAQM
T3 sequence (Q15059 306-415 limits assumed): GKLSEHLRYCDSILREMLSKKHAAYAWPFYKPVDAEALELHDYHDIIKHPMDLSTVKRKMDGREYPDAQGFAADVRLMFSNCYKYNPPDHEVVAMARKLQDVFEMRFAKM
T4 sequence (P25440 344-453 limits assumed): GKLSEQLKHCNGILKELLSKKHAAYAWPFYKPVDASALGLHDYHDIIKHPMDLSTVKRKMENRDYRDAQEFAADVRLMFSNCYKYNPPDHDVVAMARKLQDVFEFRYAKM

SMILES | IC50 [1, 8] [nM] | other results
CCn1cnc2c1c(=O)[nH]c(=O)n2Cc1ccc(CNS(=O)(=O)c2ccc3oncc3c2)cc1 [Compound 26a] | 2200 | –
CCn1cnc2c1c(=O)[nH]c(=O)n2Cc1ccc(CNS(=O)(=O)c2ccc3c(c2)n(C)c(=O)n3C)cc1 [Compound 26b] | 769 | –
CCn1cnc2c1c(=O)[nH]c(=O)n2Cc1ccc(CNS(=O)(=O)c2ccc3c(c2)CCN3C(C)=O)cc1 [Compound 26c] | 817 | –
CCn1cnc2c1c(=O)[nH]c(=O)n2Cc1ccc(CNS(=O)(=O)c2cc(-c3ccno3)ccc2C)cc1 [Compound 27a] | 1300 | –
CCn1cnc2c1c(=O)[nH]c(=O)n2Cc1ccc(CNS(=O)(=O)c2ccc3c(c2)CCC(=O)N3)cc1 [Compound 27b] | 766 | IC50 [2]: 2150 nM; IC50 [1, 9]: 766 nM; Ratio 4-1 vs 4-2 [1]: 11; IC50 [3]: 8310 nM; IC50 [4]: 3030 nM; IC50 [5]: 5580 nM; IC50 [6]: 3490 nM; Ratio 2-1 vs 2-2 [6]: 2; IC50 [7]: 940 nM; Ratio 3-1 vs 3-2 [7]: 3
CCn1cnc2c1c(=O)[nH]c(=O)n2Cc1ccc(CNS(=O)(=O)c2ccc([N+](=O)[O-])cc2)cc1 [Compound 28a] | 1300 | –
CCn1cnc2c1c(=O)[nH]c(=O)n2Cc1ccc(CNS(=O)(=O)c2ccc(N)cc2)cc1 [Compound 28b] | 729 | –
CCn1cnc2c1c(=O)[nH]c(=O)n2Cc1ccc(CNS(=O)(=O)c2ccc(C)cc2)cc1 [Compound 28c] | 687 | –
CCn1cnc2c1c(=O)[nH]c(=O)n2Cc1ccc(CNS(=O)(=O)c2ccccc2)cc1 [Compound 29a] | 1600 | –
CCn1cnc2c1c(=O)[nH]c(=O)n2Cc1ccc(CNS(=O)(=O)c2ccc(-c3coc(C)n3)cc2)cc1 [Compound 30a] | 600 | –
CCn1cnc2c1c(=O)[nH]c(=O)n2Cc1ccc(CNS(=O)(=O)c2ccc(OC)cc2)cc1 [Compound 30b] | 687 | –
CCn1cnc2c1c(=O)[nH]c(=O)n2Cc1ccc(CNS(=O)(=O)c2cccc(NC(C)=O)c2)cc1 [Compound 31b] | 723 | –
CCn1cnc2c1c(=O)[nH]c(=O)n2Cc1ccc(CNS(=O)(=O)c2ccc3c(c2)CCCC(=O)N3)c2ccccc12 [Compound 31c] | 3500 | IC50 [2]: 3360 nM; IC50 [1, 9]: 3460 nM; Ratio 4-1 vs 4-2 [1]: 1; IC50 [3]: 4210 nM; IC50 [4]: 2130 nM; IC50 [5]: 3080 nM; IC50 [6]: 4350 nM; Ratio 2-1 vs 2-2 [6]: 0.7; IC50 [7]: 5710 nM; Ratio 3-1 vs 3-2 [7]: 0.4
CCn1cnc2c1c(=O)[nH]c(=O)n2Cc1ccc(CNC(=O)CCC2CC2)cc1 [Compound 33b] | 4700 | –
CCCn1cc(C(=O)NCc2ccc(Cn3c(=O)[nH]c(=O)c4c3ncn4CC)cc2)cn1 [Compound 33c, N-(4-((7-ethyl-2,6-dioxo-1H-purin-3(2H,6H,7H)-yl)methyl)benzyl)-1-propyl-1H-pyrazole-4-carboxamide] | 4500 | –
CCn1cnc2c1c(=O)[nH]c(=O)n2Cc1ccc(CNC(=O)C2CCN(C)C2)cc1 (stereo not shown) [Compound 34a] | 4300 | –
CCCC(=O)N1CCC(C(=O)NCc2ccc(Cn3c(=O)[nH]c(=O)c4c3ncn4CC)cc2)CC1 [Compound 34b] | 2800 | –
CCn1cnc2c1c(=O)[nH]c(=O)n2Cc1ccc(CNC(=O)c2ccc(N3CCc4ccccc4C3)cc2)cc1 [Compound 34c] | 749 | –
CCn1cnc2c1c(=O)[nH]c(=O)n2Cc1ccc(CNC(=O)C2CCCC(O)C2)cc1 (stereo not shown) [Compound 35a] | 2800 | –

SMILES | IC50 [1, 8] [nM] | other results
CCn1cnc2c1c(=O)[nH]c(=O)n2Cc1ccc(CNC(=O)C2CCC(CO)CC2)cc1 (stereo not shown) [Compound 35b] | 7000 | –
CCn1cnc2c1c(=O)[nH]c(=O)n2Cc1ccc(CNC(=O)[C@H](O)c2ccc(C)cc2)cc1 [Compound 35c] | 1800 | –
CCn1cnc2c1c(=O)[nH]c(=O)n2Cc1ccc(CNC(=O)CCC(C)C)cc1 [Compound 36a] | 2200 | –
CCn1cnc2c1c(=O)[nH]c(=O)n2Cc1ccc(CNC(=O)c2ccc(Oc3ccccc3)cc2)cc1 [Compound 37a] | 2000 | –
CCn1cnc2c1c(=O)[nH]c(=O)n2Cc1ccc(CNC(=O)C(NC(=O)OC(C)(C)C)c2ccc(C)cc2)cc1 (stereo not shown) [Compound 37b] | 4900 | –
CCn1cnc2c1c(=O)[nH]c(=O)n2Cc1ccc(CNC(=O)[C@@H]2C[C@@H](c3ccccc3)CN2C(=O)OC(C)(C)C)cc1 [Compound 38a] | 1700 | –
CCn1cnc2c1c(=O)[nH]c(=O)n2Cc1ccc(CNC(=O)[C@H]2CC[C@H](CNC(=O)OC(C)(C)C)CC2)cc1 [Compound 38b] | 8100 | –
CCn1cnc2c1c(=O)[nH]c(=O)n2Cc1ccc(CNC(=O)[C@H](CC2CC2)NC(=O)OC(C)(C)C)cc1 [Compound 38c] | 5500 | –
CCn1cnc2c1c(=O)[nH]c(=O)n2Cc1ccc(CNC(=O)[C@@H]2CCCN(C(=O)OC(C)(C)C)C2)cc1 [Compound 39a] | 6800 | –
CCC[C@H](NC(=O)OC(C)(C)C)C(=O)NCc1ccc(Cn2c(=O)[nH]c(=O)c3c2ncn3CC)cc1 [Compound 39b] | 2300 | –
CCn1cnc2c1c(=O)[nH]c(=O)n2Cc1ccc(CNC(=O)[C@@H]2CCC[C@H](NC(=O)OC(C)(C)C)C2)cc1 [Compound 39c] | 1500 | –
CCn1cnc2c1c(=O)[nH]c(=O)n2Cc1ccc(CNC(=O)C(N)c2ccc(C)cc2)cc1 (stereo not shown) [Compound 40a] | 18000 | –
CCC[C@@H](N)C(=O)NCc1ccc(Cn2c(=O)[nH]c(=O)c3c2ncn3CC)cc1 [Compound 40b] | 32000 | –
CCn1cnc2c1c(=O)[nH]c(=O)n2Cc1ccc(CNC(=O)[C@@H]2C[C@@H](c3ccccc3)CN2)cc1 [Compound 40c] | 13000 | –
CCn1cnc2c1c(=O)[nH]c(=O)n2Cc1ccc(CNC(=O)[C@H]2CC[C@H](CN)CC2)cc1 [Compound 41a] | > 50000 | –
CCn1cnc2c1c(=O)[nH]c(=O)n2Cc1ccc(CNC(=O)[C@@H](N)CC2CC2)cc1 [Compound 41b] | > 50000 | –
CCn1cnc2c1c(=O)[nH]c(=O)n2Cc1ccc(CNC(=O)[C@@H]2CCCNC2)cc1 [Compound 41c] | > 50000 | –
CCC[C@H](N)C(=O)NCc1ccc(Cn2c(=O)[nH]c(=O)c3c2ncn3CC)cc1 [Compound 42a] | > 50000 | –
CCn1cnc2c1c(=O)[nH]c(=O)n2Cc1ccc(CNC(=O)C2CCCC(N)C2)cc1 (stereo not shown) [Compound 42b] | 32000 | –

— US11180510B2, “Xanthine derivatives and uses thereof as inhibitors of bromodomains of BET proteins” (Centre national de la recherche scientifique, priority 2017, dated 2021)
